Test results published in paper PMC3514216, “SRC Homology 2 Domain Binding Sites in Insulin, IGF-1 and FGF receptor mediated signaling networks reveal an extensive potential interactome” (Cell Communication and Signaling : CCS, 2012).
Substitutions are numbered along the chain they refer to. Each block holds one molecule with its values, some of them ahead of it. Residues, ends and D or L forms follow the SMILES beside them.

Tests used:
Crk SH2 domain [1] = molecular target: T1, Crk SH2 domain (Homo sapiens, UniProt P46108); test: SPOT peptide array; assay type: binding; conditions: spot intensity as factor of array mean; GST-SH2 0.25 μM
T1 sequence (P46108 13-118 limits assumed): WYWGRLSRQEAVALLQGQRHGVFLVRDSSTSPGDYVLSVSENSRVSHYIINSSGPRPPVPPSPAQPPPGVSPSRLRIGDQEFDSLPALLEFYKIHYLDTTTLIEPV
Method in brief: (§1)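 GST-tagged SH2 domain probed onto SPOT-synthesized 11-mer pTyr peptides (pTyr at pos. 5); anti-GST + NIR-labelled secondary detection. Binder = spot intensity >3× array mean; non-binder <1× mean; 1–3× indeterminate. GST-only 'sticky' peptides excluded.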

Gads SH2 domain [2] = test: SPOT peptide array; assay type: binding; conditions: spot intensity as factor of array mean; GST-SH2 0.25 μM
Method in brief: as §1

Gads SH2 domain [3] = molecular target: Gads SH2 domain; design: method as in earlier work; conditions: SH2 protein microarray; N.B. = non binding; read-out: Protein Microarray (Macbeath) – KD; cited from earlier work
Crk SH2 domain [4] = molecular target: T1, Crk SH2 domain; design: method as in earlier work; conditions: N.B. = non binding; cited from earlier work
Nck1 SH2 domain = Nck1 SH2 domain (Homo sapiens, UniProt P16333); design: method as in earlier work; conditions: N.B. = non binding; cited from earlier work
Vav1 SH2 domain = Vav1 SH2 domain (Homo sapiens, UniProt P15498); design: method as in earlier work; conditions: N.B. = non binding; cited from earlier work
Sequence of Vav1 SH2 domain (P15498 671-765 limits assumed): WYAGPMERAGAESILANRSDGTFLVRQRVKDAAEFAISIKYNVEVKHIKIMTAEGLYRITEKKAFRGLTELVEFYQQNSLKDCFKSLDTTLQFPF

CrkL SH2 domain [5] = molecular target: T2, CrkL SH2 domain (Homo sapiens, UniProt P46109); design: method as in earlier work; conditions: N.B. = non binding; cited from earlier work
T2 sequence (P46109 14-102 limits assumed): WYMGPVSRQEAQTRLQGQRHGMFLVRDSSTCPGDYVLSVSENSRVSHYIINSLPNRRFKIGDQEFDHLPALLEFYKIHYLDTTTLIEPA

Plcg2_N SH2 domain = Plcg2_N SH2 domain (Homo sapiens, UniProt P16885); design: method as in earlier work; conditions: N.B. = non binding; cited from earlier work
Sequence of Plcg2_N SH2 domain (P16885 532-635 limits assumed): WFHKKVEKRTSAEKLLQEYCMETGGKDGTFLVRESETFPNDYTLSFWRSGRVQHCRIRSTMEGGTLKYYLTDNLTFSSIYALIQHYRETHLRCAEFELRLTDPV

Abl1 SH2 domain = molecular target: T3, Abl1 SH2 domain (Homo sapiens, UniProt P00519); test: SPOT peptide array; assay type: binding; conditions: spot intensity as factor of array mean; GST-SH2 0.25 μM
T3 sequence (P00519 127-217 limits assumed): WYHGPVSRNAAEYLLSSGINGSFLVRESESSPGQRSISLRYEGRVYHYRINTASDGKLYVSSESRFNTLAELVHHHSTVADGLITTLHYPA
Method in brief: as §1

Abl2 SH2 domain = molecular target: T4, Abl2 SH2 domain (Homo sapiens, UniProt P42684); test: SPOT peptide array; assay type: binding; conditions: spot intensity as factor of array mean; GST-SH2 0.25 μM
T4 sequence (P42684 173-263 limits assumed): T3 sequence (P00519 127-217 limits assumed) with N9S, G18L, R35L, A53T, S54A, L58V, S61T, S62A, N67S, I84V
Method in brief: as §1

CrkL SH2 domain [6] = molecular target: T2, CrkL SH2 domain; test: SPOT peptide array; assay type: binding; conditions: spot intensity as factor of array mean; GST-SH2 0.25 μM
Method in brief: as §1

Grb2 SH2 domain = Grb2 SH2 domain (Homo sapiens, UniProt P62993); test: SPOT peptide array; assay type: binding; conditions: spot intensity as factor of array mean; GST-SH2 0.25 μM
Sequence of Grb2 SH2 domain (P62993 60-152 limits assumed): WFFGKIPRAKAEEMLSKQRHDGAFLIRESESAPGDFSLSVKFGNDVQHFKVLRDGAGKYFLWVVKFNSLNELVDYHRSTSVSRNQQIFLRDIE
Method in brief: as §1

Grb7 SH2 domain [7] = test: SPOT peptide array; assay type: binding; conditions: spot intensity as factor of array mean; GST-SH2 0.25 μM
Method in brief: as §1

Yes SH2 domain [8] = test: SPOT peptide array; assay type: binding; conditions: spot intensity as factor of array mean; GST-SH2 0.25 μM
Method in brief: as §1

Rasa1_N SH2 domain = Rasa1_N SH2 domain (Homo sapiens, UniProt P20936); test: SPOT peptide array; assay type: binding; conditions: spot intensity as factor of array mean; GST-SH2 0.25 μM
Sequence of Rasa1_N SH2 domain (P20936 181-272 limits assumed): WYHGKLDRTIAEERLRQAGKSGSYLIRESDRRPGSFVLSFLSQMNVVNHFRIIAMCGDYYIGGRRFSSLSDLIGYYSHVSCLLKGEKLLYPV

Itk SH2 domain = Itk SH2 domain (Homo sapiens, UniProt Q08881); test: SPOT peptide array; assay type: binding; conditions: spot intensity as factor of array mean; GST-SH2 0.25 μM
Sequence of Itk SH2 domain (Q08881 239-338 limits assumed): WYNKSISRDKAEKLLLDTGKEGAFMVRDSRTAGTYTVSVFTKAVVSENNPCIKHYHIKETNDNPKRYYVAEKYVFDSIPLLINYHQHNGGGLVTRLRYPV

Yes SH2 domain [9] = molecular target: Yes SH2 domain; design: method as in earlier work; conditions: SH2 protein microarray; N.B. = non binding; read-out: Protein Microarray (Macbeath) – KD; cited from earlier work
Grb7 SH2 domain [10] = molecular target: Grb7 SH2 domain; design: method as in earlier work; conditions: SH2 protein microarray; N.B. = non binding; read-out: Protein Microarray (Macbeath) – KD; cited from earlier work
Src SH2 domain [11] = molecular target: T5, Src SH2 domain (Homo sapiens, UniProt P12931); test: SPOT peptide array; assay type: binding; conditions: spot intensity as factor of array mean; GST-SH2 0.25 μM
Method in brief: as §1

Src SH2 domain [12] = molecular target: T5, Src SH2 domain; design: method as in earlier work; conditions: SH2 protein microarray; N.B. = non binding; read-out: Protein Microarray (Macbeath) – KD; cited from earlier work

Peptide array intensity (X mean) (Crk SH2 domain [1]): <2x X Mean
Molecule: ARDIHHIDYpYKKTTNGRD
Peptide array intensity (X mean) (Gads SH2 domain [2]): <2x X Mean
Kd (Gads SH2 domain [3]): 1.01 µM

Molecule: CSCC[C@H](NC(=O)[C@@H]1CCCN1C(=O)[C@@H](N)[C@@H](C)O)C(=O)N[C@@H](CC(C)C)C(=O)N[C@@H](C)C(=O)NCC(=O)N[C@H](C(=O)N[C@@H](CO)C(=O)N[C@@H](CCC(=O)O)C(=O)N[C@@H](Cc1ccc(OP(=O)(O)O)cc1)C(=O)N[C@@H](CCC(=O)O)C(=O)N[C@@H](CC(C)C)C(=O)N1CCC[C@H]1C(=O)N[C@@H](CCC(=O)O)C(=O)N[C@@H](CC(=O)O)C(=O)N1CCC[C@H]1C(=O)N[C@@H](CCCNC(=N)N)C(=O)N[C@@H](CC(=O)O)C(=O)O)C(C)C (HELM PEPTIDE1{T.P.M.L.A.G.V.S.E.[O=C([C@H](Cc1ccc(OP(=O)(O)O)cc1)N[*:1])[*:2]].E.L.P.E.D.P.R.D}$$$$V2.0)
Protein Microarray (Macbeath) – KD (Crk SH2 domain [4]): N.B.
Protein Microarray (Macbeath) – KD (Nck1 SH2 domain): N.B.
Protein Microarray (Macbeath) – KD (Vav1 SH2 domain): N.B.
Protein Microarray (Macbeath) – KD (CrkL SH2 domain [5]): N.B.
Protein Microarray (Macbeath) – KD (Plcg2_N SH2 domain): N.B.

Peptide array intensity (X mean) (Abl1 SH2 domain): >3x X Mean
Peptide array intensity (X mean) (Abl2 SH2 domain): <2x X Mean
Peptide array intensity (X mean) (CrkL SH2 domain [6]): <2x X Mean
Peptide array intensity (X mean) (Grb2 SH2 domain): <2x X Mean
Peptide array intensity (X mean) (Rasa1_N SH2 domain): <2x X Mean
Peptide array intensity (X mean) (Itk SH2 domain): <2x X Mean
Molecule: QARRPPGLEpYCYNPSHND* [FGFR1 Y583 phosphopeptide; Cys replaced with Ala or Ser on peptide arrays]
Peptide array intensity (X mean) (Grb7 SH2 domain [7]): >3x X Mean
Peptide array intensity (X mean) (Yes SH2 domain [8]): <2x X Mean
Kd (Yes SH2 domain [9]): 1.55 µM
Kd (Grb7 SH2 domain [10]): 1 µM

Peptide array intensity (X mean) (Abl2 SH2 domain): <2x X Mean
Peptide array intensity (X mean) (Grb2 SH2 domain): <2x X Mean
Peptide array intensity (X mean) (Src SH2 domain [11]): <2x X Mean
Molecule: EIFTLGGSPpYPGVPVEED
Peptide array intensity (X mean) (Grb7 SH2 domain [7]): <2x X Mean
Kd (Src SH2 domain [12]): 1.79 µM
Kd (Grb7 SH2 domain [10]): 0.65 µM
